Structures are written as SMILES. Calls of active or inactive are those of the source. The rule behind the calls is not given here.

Data on nine molecules can be found in ChEMBL document CHEMBL4382200, “Discovery of Novel 7-Aryl 7-Deazapurine 3'-Deoxy-ribofuranosyl Nucleosides with Potent Activity against Trypanosoma cruzi” (J Med Chem, 2018).

Data set [1] in a line: Drug metabolism in dog liver microsome S9 fraction assessed as CYP450-mediated metabolism by measuring compound remaining at 5 uM pretreated with NADPH and measured after 15 mins by UPLC-MS/MS analysis. The class given is ADME, microsomes, Canis lupus familiaris. As to conditions: microsomes, 0.25 h, 5 µM.
Data set [2] concerns Cytochrome P450. Briefly: Drug metabolism in human liver microsome S9 fraction assessed as CYP450-mediated metabolism by measuring compound remaining at 5 uM pretreated with NADPH and measured after 60 mins by UPLC-MS/MS analysis. The class given is ADME, microsomes. Particulars: microsomes, 1 h, 5 µM. A general note: Liver microsomes are a subcellular fraction often used to study metabolism.

A short description of data set [3]: Drug metabolism in mouse liver microsome S9 fraction assessed as CYP450-mediated metabolism by measuring compound remaining at 5 uM pretreated with NADPH and measured after 30 mins by UPLC-MS/MS analysis. The class given is ADME, microsomes. As to conditions: microsomes, 0.5 h, 5 µM.
In data set [4] the test system is Cytochrome P450. Briefly: Drug metabolism in human liver microsome S9 fraction assessed as CYP450-mediated metabolism by measuring compound remaining at 5 uM pretreated with NADPH and measured after 15 mins by UPLC-MS/MS analysis. Particulars: microsomes, 0.25 h, 5 µM. The class given is ADME, microsomes.
Data set [5] in a line: Drug metabolism in mouse liver microsome S9 fraction assessed as CYP450-mediated metabolism by measuring compound remaining at 5 uM pretreated with NADPH and measured after 60 mins by UPLC-MS/MS analysis. The class given is ADME, microsomes. Particulars: microsomes, 1 h, 5 µM.
Data set [6] is described as follows: Drug metabolism in rat liver microsome S9 fraction assessed as CYP450-mediated metabolism by measuring compound remaining at 5 uM pretreated with NADPH and measured after 30 mins by UPLC-MS/MS analysis. Type of data set: ADME, microsomes. Particulars: microsomes, 0.5 h, 5 µM.
The nature of data set [7]: Drug metabolism in mouse liver microsome S9 fraction assessed as CYP450-mediated metabolism by measuring compound remaining at 5 uM pretreated with NADPH and measured after 15 mins by UPLC-MS/MS analysis. Type of data set: ADME, microsomes. Particulars: microsomes, 0.25 h, 5 µM.
The nature of data set [8]: Drug metabolism in dog liver microsome S9 fraction assessed as CYP450-mediated metabolism by measuring compound remaining at 5 uM pretreated with NADPH and measured after 60 mins by UPLC-MS/MS analysis. The class given is ADME, microsomes, Canis lupus familiaris. As to conditions: microsomes, 1 h, 5 µM.
Data set [9] is described as follows: Drug metabolism in dog liver microsome S9 fraction assessed as CYP450-mediated metabolism by measuring compound remaining at 5 uM pretreated with NADPH and measured after 30 mins by UPLC-MS/MS analysis. The class given is ADME, microsomes, Canis lupus familiaris. Particulars: microsomes, 0.5 h, 5 µM.
In data set [10] the test system is Cytochrome P450. Briefly: Drug metabolism in human liver microsome S9 fraction assessed as CYP450-mediated metabolism by measuring compound remaining at 5 uM pretreated with NADPH and measured after 30 mins by UPLC-MS/MS analysis. As to conditions: microsomes, 0.5 h, 5 µM. The class given is ADME, microsomes.
Data set [11] can be described thus: Drug metabolism in rat liver microsome S9 fraction assessed as CYP450-mediated metabolism by measuring compound remaining at 5 uM pretreated with NADPH and measured after 15 mins by UPLC-MS/MS analysis. The class given is ADME, microsomes. As to conditions: microsomes, 0.25 h, 5 µM.
A short description of data set [12]: Drug metabolism in rat liver microsome S9 fraction assessed as CYP450-mediated metabolism by measuring compound remaining at 5 uM pretreated with NADPH and measured after 60 mins by UPLC-MS/MS analysis. Particulars: microsomes, 1 h, 5 µM. The class given is ADME, microsomes.
For data set [13], the system named is Trypanosoma cruzi. Briefly: Trypanocidal activity against Trypanosoma cruzi Y strain intracellular amastigotes infected in mouse cardiac cells assessed as parasite death after 168 hrs by Giemsa-staining based assay. The class given is functional, organism-based.
In data set [14] the test system is Trypanosoma cruzi. Briefly: Antiparasitic activity against Trypanosoma cruzi Y strain bloodstream trypomastigotes infected in Swiss Webster mouse at 100 mg/kg, po sid via gavage administered for 5 consecutive days starting from day 5 post infection followed by cyclophosphamide-induced immunosuppression on day 40 post infection for 4 consecutive days. Type of data set: functional, organism-based.

Data set [15] relates to Trypanosoma cruzi. In words: Antiparasitic activity against Trypanosoma cruzi Tulahuen CL2 intracellular amastigotes expressing beta-galactosidase infected in human MRC5 SV2 cells after 7 days by chlorophenol red beta-D-galactopyranoside-based spectrophotometric analysis. As to conditions: Tulahuen CL2, MRC-5 SV2, 168 h. Type of data set: functional, organism-based.
Data set [16] concerns Trypanosoma cruzi. Briefly: Trypanocidal activity against Trypanosoma cruzi Y strain bloodstream trypomastigotes isolated from infected Swiss mouse […] assessed as parasite death after 24 hrs by neubauer chamber based light microscopy. Type of data set: functional, organism-based.
Data set [17] relates to Trypanosoma cruzi. In words: Antiparasitic activity against Trypanosoma cruzi Y strain bloodstream trypomastigotes infected in Swiss Webster mouse assessed as protection against parasite-induced mortality at 100 mg/kg, po sid via gavage administered for 5 consecutive days starting from day 5 post infection measured at day 15 post infection. Type of data set: functional, organism-based.

A short description of data set [18]: Cytotoxicity against Swiss mouse embryonic cardiomyocytes assessed as reduction in cell viability after 24 hrs by prestoblue-staining based colorimetry. Particulars: Cardiac muscle cell.
Data set [19] concerns Trypanosoma cruzi. In words: Antiparasitic activity against Trypanosoma cruzi Y strain bloodstream trypomastigotes infected in Swiss Webster mouse assessed as decrease in parasitemia at 100 mg/kg, po sid via gavage administered for 5 consecutive days measured at day 8 post infection by direct microscopic counting. The class given is functional, organism-based.
Data set [20] deals with Trypanosoma cruzi. Briefly: Antiparasitic activity against Trypanosoma cruzi Y strain bloodstream trypomastigotes infected in Swiss Webster mouse assessed as protection against parasite-induced mortality at 25 mg/kg, po bid via gavage administered for 5 consecutive days starting from day 5 post infection measured at day 15 post infection. The class given is functional, organism-based.

Data set [21] is described as follows: Therapeutic index, ratio EC50 for human MRC5 SV2 cells to EC50 for Trypanosoma cruzi Tulahuen CL2 intracellular amastigotes. Type of data set: toxicity, cell-based. As to conditions: read-out: Ratio EC50.
Data set [22] is described as follows: Cytotoxicity against human MRC5 SV2 cells assessed as reduction in cell viability after 3 days resazurin-based fluorimetric assay. Particulars: MRC-5 SV2, 72 h.
A short description of data set [23]: Drug metabolism in rat liver microsome S9 fraction assessed as UGT-mediated metabolism by measuring compound remaining at 5 uM pretreated with UDPGA and measured after 30 mins by UPLC-MS/MS analysis. The class given is ADME, microsomes. As to conditions: microsomes, 0.5 h, 5 µM.
The nature of data set [24]: Drug metabolism in rat liver microsome S9 fraction assessed as UGT-mediated metabolism by measuring compound remaining at 5 uM pretreated with UDPGA and measured after 60 mins by UPLC-MS/MS analysis. The class given is ADME, microsomes. Particulars: microsomes, 1 h, 5 µM.
Data set [25] in a line: Drug metabolism in mouse liver microsome S9 fraction assessed as UGT-mediated metabolism by measuring compound remaining at 5 uM pretreated with UDPGA and measured after 15 mins by UPLC-MS/MS analysis. As to conditions: microsomes, 0.25 h, 5 µM. The class given is ADME, microsomes.
A short description of data set [26]: Drug metabolism in dog liver microsome S9 fraction assessed as UGT-mediated metabolism by measuring compound remaining at 5 uM pretreated with UDPGA and measured after 60 mins by UPLC-MS/MS analysis. Particulars: microsomes, 1 h, 5 µM. Type of data set: ADME, microsomes, Canis lupus familiaris.
The test system of data set [27] is UDP-glucuronosyltransferases (UGTs). Briefly: Drug metabolism in human liver microsome S9 fraction assessed as UGT-mediated metabolism by measuring compound remaining at 5 uM pretreated with UDPGA and measured after 30 mins by UPLC-MS/MS analysis. Particulars: microsomes, 0.5 h, 5 µM. The class given is ADME, microsomes.
A short description of data set [28]: Drug metabolism in mouse liver microsome S9 fraction assessed as UGT-mediated metabolism by measuring compound remaining at 5 uM pretreated with UDPGA and measured after 30 mins by UPLC-MS/MS analysis. Type of data set: ADME, microsomes. Particulars: microsomes, 0.5 h, 5 µM.
Data set [29] can be described thus: Drug metabolism in dog liver microsome S9 fraction assessed as UGT-mediated metabolism by measuring compound remaining at 5 uM pretreated with UDPGA and measured after 30 mins by UPLC-MS/MS analysis. As to conditions: microsomes, 0.5 h, 5 µM. Type of data set: ADME, microsomes, Canis lupus familiaris.
A short description of data set [30]: Drug metabolism in dog liver microsome S9 fraction assessed as UGT-mediated metabolism by measuring compound remaining at 5 uM pretreated with UDPGA and measured after 15 mins by UPLC-MS/MS analysis. As to conditions: microsomes, 0.25 h, 5 µM. Type of data set: ADME, microsomes, Canis lupus familiaris.
A short description of data set [31]: Drug metabolism in rat liver microsome S9 fraction assessed as UGT-mediated metabolism by measuring compound remaining at 5 uM pretreated with UDPGA and measured after 15 mins by UPLC-MS/MS analysis. The class given is ADME, microsomes. As to conditions: microsomes, 0.25 h, 5 µM.
The test system of data set [32] is UDP-glucuronosyltransferases (UGTs). In words: Drug metabolism in human liver microsome S9 fraction assessed as UGT-mediated metabolism by measuring compound remaining at 5 uM pretreated with UDPGA and measured after 15 mins by UPLC-MS/MS analysis. The class given is ADME, microsomes. As to conditions: microsomes, 0.25 h, 5 µM.
The nature of data set [33]: Drug metabolism in mouse liver microsome S9 fraction assessed as UGT-mediated metabolism by measuring compound remaining at 5 uM pretreated with UDPGA and measured after 60 mins by UPLC-MS/MS analysis. Type of data set: ADME, microsomes. As to conditions: microsomes, 1 h, 5 µM.
The test system of data set [34] is UDP-glucuronosyltransferases (UGTs). Briefly: Drug metabolism in human liver microsome S9 fraction assessed as UGT-mediated metabolism by measuring compound remaining at 5 uM pretreated with UDPGA and measured after 60 mins by UPLC-MS/MS analysis. The class given is ADME, microsomes. As to conditions: microsomes, 1 h, 5 µM.

`OC(Cn1cncn1)(Cn1cncn1)c1ccc(F)cc1F` [FLUCONAZOLE]: the Stability entry in data set [1], in data set [2], in [3], in data set [4], in [5] and in data set [6] was “Stable” each time. In addition, the Stability entry in [7], in [8], in data set [9], in data set [10], in data set [11] and in data set [12] was “Stable” in each case.
`O=C(Cn1ccnc1[N+](=O)[O-])NCc1ccccc1` [BENZNIDAZOLE]: the EC50 in data set [13] was 0.354 µM; in data set [15], 2.28 µM; in [16] it was 11.5 µM; in data set [18], over 400 µM. Further, the outcome in [14] was inactive. Besides, the outcome in data set [17], in [19] and in data set [20] was Active.
For `Nc1ncnc2c1c(-c1ccc3ccccc3c1)cn2[C@@H]1O[C@H](CO)C[C@H]1O`, the selectivity ratio in [21] worked out at 7. In addition, the figures for the EC50 in data set [15] (read-out: EC50) and in data set [22] were 0.72 µM and 5 µM, respectively.
Regarding `Cc1ccc(-c2cn([C@@H]3O[C@H](CO)C[C@H]3O)c3ncnc(N)c23)cc1Cl`, in [21], the selectivity ratio is 66. Besides, the EC50 in data set [15] (read-out: EC50) stood at 0.27 µM; in [22], 17.8 µM.
For `COc1ccc(-c2cn([C@@H]3O[C@H](CO)C[C@H]3O)c3ncnc(N)c23)cc1`, in that order: 10, 2.38 µM and 24.3 µM.
In the case of `Nc1ncnc2c1c(-c1ccc(Cl)cc1Cl)cn2[C@@H]1O[C@H](CO)C[C@H]1O`, the selectivity ratio in data set [21] amounted to 44. The EC50 in data set [15] (read-out: EC50) was found to be 0.45 µM; in data set [22], 19.6 µM.
Turning to `O=C(O)Cc1ccccc1Nc1c(Cl)cccc1Cl` [DICLOFENAC], the Stability result in [23], in [1], in data set [24], in [2], in data set [3] and in data set [25] was “Unstable” each time. Further, the Stability entry in data set [4], in [5], in data set [26], in data set [27], in data set [6] and in data set [7] was “Unstable” in each case. The Stability entry in data set [28], in [29], in [30], in data set [8], in data set [9] and in data set [31] was “Unstable” throughout. Further, the Stability entry in data set [32], in data set [10], in data set [11], in data set [12], in [33] and in data set [34] was “Unstable” each time.
As for `Cc1cc(-c2cn([C@@H]3O[C@H](CO)C[C@H]3O)c3ncnc(N)c23)ccc1Cl`, in data set [21], the selectivity ratio is 80. For the same molecule, the EC50 in data set [15] (read-out: EC50) worked out at 0.21 µM; in [22], 16.7 µM.
For `Cc1ccc(-c2cn([C@@H]3O[C@H](CO)C[C@H]3O)c3ncnc(N)c23)cc1`, in data set [21], the selectivity ratio was 46. For the same molecule, the EC50 in data set [15] (read-out: EC50) is 0.46 µM; in data set [22], 21 µM.

As a reminder, the EC50 is the concentration at which the effect is half-maximal.
